The source of these data is patent publication US20060149062A1, “Sulfanyl substituted phenyl methanones” (priority 2005, published 2006).

For this test, the target named is T1, mGlyT-1b (Mus musculus, UniProt P28571).
T1 construct: expressed in transfected cells; host or cells: Flp-in-CHO (Invitrogen Cat no R758-07), stably transfected
T1 sequence (P28571 1-651 isoform P28571-2): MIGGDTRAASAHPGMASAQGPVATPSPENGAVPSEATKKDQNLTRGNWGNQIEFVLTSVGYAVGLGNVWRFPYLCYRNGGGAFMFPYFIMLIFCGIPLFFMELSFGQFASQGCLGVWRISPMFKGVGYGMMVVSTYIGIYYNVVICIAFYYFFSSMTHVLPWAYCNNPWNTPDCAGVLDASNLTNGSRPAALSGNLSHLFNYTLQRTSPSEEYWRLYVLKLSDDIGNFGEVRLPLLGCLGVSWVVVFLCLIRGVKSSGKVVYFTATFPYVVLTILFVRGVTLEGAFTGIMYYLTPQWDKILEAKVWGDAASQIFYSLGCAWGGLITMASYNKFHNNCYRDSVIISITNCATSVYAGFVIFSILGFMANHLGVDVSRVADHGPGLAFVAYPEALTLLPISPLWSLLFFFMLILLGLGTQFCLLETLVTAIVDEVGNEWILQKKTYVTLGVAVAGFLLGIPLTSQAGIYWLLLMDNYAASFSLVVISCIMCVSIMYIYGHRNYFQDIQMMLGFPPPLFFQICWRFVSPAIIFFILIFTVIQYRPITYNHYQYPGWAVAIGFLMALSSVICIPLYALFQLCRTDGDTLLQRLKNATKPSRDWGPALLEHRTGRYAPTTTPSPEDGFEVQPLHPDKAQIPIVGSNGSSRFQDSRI
Nature of the test: Glycine Uptake Inhibition Assay (mGlyT-1b). As to conditions: [3H]-glycine uptake in Flp-in-CHO cells transfected with mGlyT-1b cDNA; read-out: IC50 (μM) at GlyT-1. In kind it is cell-based. As to the method: DMEM complete medium: Nutrient mixture F-12 (Gibco Life-technologies), fetal bovine serum (FBS) 5%, (Gibco life technologies), Penicillin/Streptomycin 1% (Gibco life technologies), Hygromycin 0.6 mg/ml (Gibco life technologies), Glutamine 1 mM Gibco life technologies)
Uptake buffer (UB): 150 mM NaCl, 10 mM Hepes-Tris, pH 7.4, 1 mM CaCl2, 2.5 mM KCl, 2.5 mM MgSO4, 10 mM (+) D-glucose.
Flp-in™-CHO (Invitrogen Cat no R758-07) cells stably transfected with mGlyT1b cDNA.
Glycine Uptake Inhibition Assay (mGlyT-1b)
On day 1 mammalian cells, (Flp-in™-CHO), transfected with mGlyT-1b cDNA, were plated at the density of 40,000 cells/well in complete F-12 medium, without hygromycin in 96-well culture plates. On day 2, the medium was aspirated and the cells were washed twice with uptake buffer (UB). The cells were then incubated for 20 min at 22° C. with either (i) no potential competitor, (ii) 10 mM non-radioactive glycine, (iii) a concentration of a potential inhibitor. A range of concentrations of the potential inhibitor was used to generate data for calculating the concentration of inhibitor resulting in 50% of the effect (e.g. IC50, the concentration of the competitor inhibiting glycine uptake of 50%). A solution was then immediately added containing [^3H]-glycine 60 nM (11-16 Ci/mmol) and 25 μM non-radioactive glycine. The plates were incubated with gentle shaking and the reaction was stopped by aspiration of the mixture and washing (three times) with ice-cold UB. The cells were lysed with scintillation liquid, shaken 3 hours and the radioactivity in the cells was counted using a scintillation counter.

Regarding `CC(C)Sc1ccc(S(C)(=O)=O)cc1C(=O)N1CCN(c2ncc(C(F)(F)F)cc2F)CC1` [Example 3, [4-(3-Fluoro-5-trifluoromethyl-pyridin-2-yl)-piperazin-1-yl]-(2-isopropylsulfanyl-5-methanesulfonyl-phenyl)-methanone], the IC50 – broadly, the concentration needed to halve the response being measured – was 0.03 µM.
As for `CC(C)Sc1ccc(S(C)(=O)=O)cc1C(=O)N1CCN(c2ccc([N+](=O)[O-])cc2Cl)CC1` [Example 23, [4-(2-Chloro-4-nitro-phenyl)-piperazin-1-yl]-(2-isopropylsulfanyl-5-methanesulfonyl-phenyl)-methanone], the figure is 0.018 µM; as for `CCSc1ccc(S(C)(=O)=O)cc1C(=O)N1CCN(c2ncc(C(F)(F)F)cc2F)CC1` [Example 7, (2-Ethylsulfanyl-5-methanesulfonyl-phenyl)-[4-(3-fluoro-5-trifluoromethyl-pyridin-2-yl)-piperazin-1-yl]-methanone], 0.08 µM.
As for `CNS(=O)(=O)c1ccc(SC(C)C)c(C(=O)N2CCN(c3ccc(C(F)(F)F)cc3)CC2)c1` [Example 25, 4-Isopropylsulfanyl-N-methyl-3-[4-(4-trifluoromethyl-phenyl)-piperazine-1-carbonyl]-benzenesulfonamide], the figure is 0.006 µM; as for `CC(=O)c1ccc(N2CCN(C(=O)c3cc(S(C)(=O)=O)ccc3SC(C)C)CC2)c(F)c1` [Example 22, 1-{3-Fluoro-4-[4-(2-isopropylsulfanyl-5-methanesulfonyl-benzoyl)-piperazin-1-yl]-phenyl}-ethanone], 0.015 µM; as for `CC(C)CSc1ccc(S(C)(=O)=O)cc1C(=O)N1CCN(c2ccc(S(C)(=O)=O)cc2F)CC1` [Example 18, [4-(2-Fluoro-4-methanesulfonyl-phenyl)-piperazin-1-yl]-(2-isobutylsulfanyl-5-methanesulfonyl-phenyl)-methanone], 0.1 µM.
The figure for `CS(=O)(=O)c1ccc(N2CCN(C(=O)c3cc(S(C)(=O)=O)ccc3SCC(F)(F)F)CC2)c(F)c1` [Example 14, [4-(2-Fluoro-4-methanesulfonyl-phenyl)-piperazin-1-yl]-[5-methanesulfonyl-2-(2,2,2-trifluoro-ethylsulfanyl)-phenyl]-methanone] is 0.1 µM; for `CC(C)Sc1ccc(S(C)(=O)=O)cc1C(=O)N1CCN(c2ccc(S(C)(=O)=O)cc2F)CC1` [Example 6, [4-(2-Fluoro-4-methanesulfonyl-phenyl)-piperazin-1-yl]-(2-isopropylsulfanyl-5-methanesulfonyl-phenyl)-methanone] it is 0.04 µM; for `CC(C)Sc1ccc([N+](=O)[O-])cc1C(=O)N1CCN(c2ccc(C(F)(F)F)cc2)CC1` [Example 27, (2-Isopropylsulfanyl-5-nitro-phenyl)-[4-(4-trifluoromethyl-phenyl)-piperazin-1-yl]-methanone] it is 0.007 µM.
`CS(=O)(=O)c1ccc(SCC(F)(F)F)c(C(=O)N2CCN(c3ncc(C(F)(F)F)cc3F)CC2)c1` [Example 11, [4-(3-Fluoro-5-trifluoromethyl-pyridin-2-yl)-piperazin-1-yl]-[5-methanesulfonyl-2-(2,2,2-trifluoro-ethylsulfanyl)-phenyl]-methanone]: the half-inhibitory concentration (IC50) came to 0.07 µM.
